Laboratory results as given in patent US6545048B1, “Compositions and methods of treating cancer using compositions comprising an inhibitor or endothelin receptor activity” (California Institute of Technology, priority 1999, dated 2003).
Entries after “also recorded” stand apart in the source; their conditions may differ. Where a SMILES comes first, the peptide text is derived from it. [ ]: non-standard residue; d: D form.

Assays:
[1] = system: human melanoma cell lines; assay: MTS cell viability/cell number assay, melanoma lines; format: cell-based; settings: for number of viable cells: 4 days
Description: Cells were cultured in the presence of BQ788 or vehicle or with no treatment for 4 days. Three wells of each condition were subjected to the MTS assay. The means were calculated and plotted as percent of the vehicle-treated value, +S.E.M. P values were calculated using […] for absolute values. The experiment was repeated 3 times, each yielding similar results.
(§1) Cell culture. Human melanoma cell lines were obtained from the American Tissue Culture Collection (ATCC) and were cultured with Dulbecco's Eagle medium (ATCC), containing 10% fetal calf serum, glutamine (Gibco) and antibiotics (concentration; Pen-Strep mix, Gibco) in a humidified incubator with 5% CO2 at 37° C. BQ788 and BQ123 (Calbiochem) were dissolved in 2% polyoxythylene (60) hydrogenated castor oil (HCO60; Nikko Chemicals). Cells were cultured in 96 well ELISA plates. For the cell viability/cell number assay, the day after plating, inhibitor or vehicle was added ard the cultures incubated for 4 days. The MTS assay was used to quantify cells by measuring OD at […] (Promega).

[2] = system: human melanoma cell lines; assay: Morphology of cultured melanoma cells treated with antagonist (bright field); format: cell-based
Description: (§2) Cells were cultured for 4 days with 100 μM BQ788 (FIGS. A, C, and E) or with vehicle (FIGS. B, D, and F). The cell lines were melanoma line SK-MEL 28 (FIGS. A and B), melanoma line SK-MEL 5 (FIGS. C and D), and kidney 293 (FIGS. E and F). […] Pictures were taken with bright field optics at 40×magnification.
as §1
(§3) To test the hypothesis that ETRB function plays a role in melanoma cell growth and differentiation, we cultured 7 human melanoma cell lines and one human kidney cell line with the selective ETRB antagonist, BQ788.

kidney 293 cells [3] = assay: Morphology of cultured kidney 293 cells treated with antagonist (bright field); format: cell-based, human; settings: 100 μM, 4 days
Description: as §2, §1, §3

kidney 293 cells [4] = assay: MTS cell viability/cell number assay, kidney cells; format: cell-based, human; settings: high concentrations, 4 days
A375 cells = assay: MTS assay, S6c alone or in combination with BQ788; format: cell-based, human
Description: In experiments similar to those illustrated in FIG. 2, S6c was tested for its effects on cultured A375 cells, alone or in combination with BQ788, at various concentrations.
as §1
Thus, the ability of BQ788 to lower melanoma cell number is likely to be through its action on ETRB and not as a side effect on another aspect of melanoma cell physiology.

A375 melanoma tumor [5] = assay: Intra-tumor injection, A375 melanoma grafts in nude mice; format: in vivo, nude mice (nu/nu, BALB/c background)
Description: Nude mice (nu/nu, BALB/c background) were implanted with grafts of A375 cells subcutaneously on the flank. After the tumors had reached approximately 4 mm in diameter they were injected daily with BQ788 for 9 days. Perpendicular tumor diameters were measured daily to estimate tumor volume. Controls were injected on the same schedule with vehicle. Data from 3 experiments utilizing 10 BQ788-treated mice and 8-vehicle treated mice were pooled. P values were calculated using t test. Similar conclusions come from measuring tumor weights.
For the in vivo experiments we chose the A375 melanoma cell line. Although this line is not the most sensitive to BQ788 treatment in culture, it is known to grow readily in nude mice. First, dissociated cells were injected as a suspension into the flank of nude mice. When tumors developed, one mouse was sacrificed, the tumor removed and cut into pieces of approximately 3 mm in diameter and implanted under the skin of a new series of nude mice. When the tumor reaches 4 mm in diameter (which takes approximately 12 days, but can vary), 25 μl of a solution containing 20, μg/μl of BQ788 dissolved in 2% polyoxythylene (60) hydrogenated castor oil (HCO60) (Ishikawa, et al., Proc. Natl. Acad. Sci. USA, 91:4892-6 (1994)) was injected into the center of the tumor daily for 9 days. Tumors in control mice were injected in the same way with 25 μl of 2% HCO60. Before each injection the tumor dimensions were measured. At the outset, the mean tumor volume was 26 mm^3 in both control and BQ788-treated mice. […] Similar conclusions come from comparison of tumor weights (means of 446 mg versus 93 mg; p<0.005).

A375 melanoma tumor [6] = assay: Systemic (i.p.) administration, A375 melanoma grafts in nude mice; format: in vivo
Description: The experiment was similar to that described in FIG. 6, except that the drug and vehicle were injected daily i.p. In FIG. 7A, the data for the 6 BQ788-treated mice were pooled.
We next asked if systemic administration of BQ788 inhibits tumor growth. In these experiments, tumor induction and the starting point of the treatments were as for the intra-tumor approach. At that point, mice were injected i.p. with 100 μl of BQ788 solution (0.6 mg BQ788 in 30% water and 70% saline, at a final HCO60 concentration of 0.6%) once or twice a day for a period of 9 days. Control mice received the same injections but without BQ788. In the first experiment, mice were injected once a day, and in the second experiment the mice were injected in the morning and then again in the early evening. […] However, there was some heterogeneity in the response of the mice to BQ788.

A375 melanoma tumor [7] = assay: Histology of tumors from the i.p. experiment (TUNEL, anti-CD31); format: in vivo, nude mice
Description: FIGS. 8A-8D show representative sections from 4 tumors from BQ788 injected mice and FIGS. 8E-8G show tumors from vehicle-injected mice. […] The magnification is 20×.
Immunohistochemistry. Tumors were frozen on dry ice, cut on a cryostat into 20 μm sections, and stored at −80° C. Sections were rinsed in calcium and magnesium-free phosphate buffered saline (PBS), fixed in 4% paraformaldehyde for 1 hour at room temperature, blocked with 2% rabbit serum and incubated with primary antibody overnight at 4° C. After washing in PBS sections were incubated with a biotinylated secondary antibody, and staining developed using the Elite ABC kit (Vector Laboratories, CA). The primary antibodies used in this study were monoclonal rat anti-mouse CD31 (platelet endothelial cell adhesion molecule) and rat anti-mouse CD45 (leukocyte common antigen found on all cells of hematopoietic origin, except erythrocytes) (Pharmagen, San Diego, Calif.). A cell death kit was used for TUNEL staining (Boehringer Mannheim).
Several of the tumors from the i.p. injection experiment were taken for histological examination on day 10. Sections were stained with anti-CD31 antibody for angiogenesis, and with the TUNEL method for apoptosis. […] These effects in culture appear mediated by the action of the drug on ETRB itself, as BQ788 is ineffective on A375 cells in the presence of the ETRB agonist S6c. A further indication of the specificity of the action of BQ788 is its very different effect on kidney 293 cells.

[8] = literature reports; cited from earlier work
[9] = A375, SK-MEL 28 and RPMI 7951 cells

## CC(C)C[C@@H]1NC(=O)[C@@H](C(C)C)NC(=O)[C@@H]2CCCN2C(=O)[C@@H](CC(=O)O)NC(=O)[C@@H](Cc2c[nH]c3ccccc23)NC1=O [BQ123] (cyclo(L[dW][dD]P[dV]))
[1]; A375 and SK-MEL 28 melanoma lines
  cell number: slightly increases cell number
[1]; any of the cell lines, even at high concentrations
  number of viable cells: does not reduce the number of viable cells; also recorded: did not inhibit melanoma cell growth in culture

## CCCC[C@@H](NC(=O)[C@@H](Cc1cn(C(=O)OC)c2ccccc12)NC(=O)[C@H](CC(C)(C)C)NC(=O)N1[C@H](C)CCC[C@@H]1C)C(=O)O [BQ788, N-cis-2,6-dimethylpiperidinocarbonyl-L-γ-methylleucyl-D-1-methoxycarbonyltrptophanyl-D-norleucine]
[2]; [9]
  morphology: vacuoles in their cytoplasm
[2]; SK-MEL 3 cells
  morphology: increased surface area (dendritic morphology)
[2]; SK-MEL 5 cells, 100 μM, 4 days
  phenotype / dendricity: dendritic phenotype; also recorded: increased dendricity
[2]; SK-MEL 24 and SK-MEL 31 cells
  morphology: increased pigmentation
[2]; SK-MEL 28 and SK-MEL 5, 100 μM, 4 days (FIG. 1 legend)
  morphology: different shape and accumulation of black pigment
[2]; SK-MEL 28 cells, 100 μM, 4 days
  morphological changes: develop large cytoplasmic vacuoles and enhanced pigmentation
[2]; all the melanoma lines
  surface area: increased surface area
[2]; most melanoma lines (except for SK-MEL 3)
  pigmentation: major increases in pigmentation
Kidney 293 cells [3]
  morphological changes: does not result in any of these morphological changes
[1]; [9]
  viability: almost complete loss of viability
[1]; RPMI 7951 cells
  sensitivity among the cell lines: highest degree of sensitivity
[1]; SK-MEL 3 cells
  viability: less affected than the other lines
[1]; SK-MEL 24 and SK-MEL 31 cells
  viability: more affected
[1]; all 7 melanoma lines, 100 μM
  number of viable cells: reduces the number of viable cells; also recorded: very significant loss in the number of viable cells
Kidney 293 cells [4]
  number of viable cells: not kidney cells; also recorded: is not reduced
A375 cells; A375 cells, ETRB agonist S6c present
  effect of BQ788 on cells in the presence of S6c: ineffective
A375 melanoma tumor [5]; 9 days, intra-tumor injection
  growth rate (final size minus initial size) compared to controls: 6 times slower
A375 melanoma tumor [5]; after 9 days of daily intra-tumor injection, control 376 mm^3, 26 mm^3 at the outset
  mean tumor volume: 84 mm^3
A375 melanoma tumor [5]; intra-tumor injection daily for 9 days
  tumor growth: inhibits melanoma tumor growth
A375 melanoma tumor [5]; intra-tumor injection, control 446 mg, p<0.005
  tumor weight (mean): 93 mg
A375 melanoma tumor [6]; i.p. once or twice a day for 9 days, pooled mice
  tumor growth: inhibits melanoma tumor growth; also recorded: effective inhibition of tumor growth
A375 melanoma tumor [6]; i.p., after 6 days, one set of mice
  tumor growth, first subgroup of mice: slowed tumor growth
A375 melanoma tumor [6]; i.p., after 6 days, other set of mice
  tumor growth, second subgroup of mice: caused the tumors to regress; also recorded: the tumors shrank and displayed complete growth arrest
A375 melanoma tumor [6]; i.p., first 6 days
  tumor size versus day 1: did not differ significantly from their size at day 1
A375 melanoma tumor [7]; day 10
  TUNEL labeling (apoptosis): TUNEL-positive cells are comparatively greater
A375 melanoma tumor [7]; day 10 (data not shown)
  angiogenesis (anti-CD31 staining): no evidence that BQ788 blocks angiogenesis
A375 melanoma tumor [7]; day 10, listed as BQ-788
  TUNEL labeling (apoptosis): enhanced TUNEL labeling
[8]
  tolerability: can be well tolerated

## sarafotoxin 6c [S6c]
A375 cells; S6c alone, 0.1 to 1 μM
  A375 cell number: stimulates cell growth; also recorded: increases A375 cell number
A375 cells; S6c in combination with BQ788, A375 cells
  block of the effects of BQ788 on cell number: can block the inhibitory effects of the ETRB antagonist; also recorded: can completely block the effects of BQ788
